From patent US9603905B2, “Intranasal insulin administration for the minimization of anesthesia-induced memory loss” (priority 2014, dated 2017)
Like-named read-outs stand apart in the source and are kept apart here.

Columns and labels:
old wild type mice = assay: Morris water maze (MWM) test after anesthesia
Protocol: This paradigm of anesthesia is similar to that used clinically for surgical patents in the U.S. The cognitive function of the mice was assessed starting on the next day by using the Morris water maze (MWM) test, a widely used cognitive test for rodents.
Probe testing was carried out on the following day after four-day training and was used to evaluate the retrieval of spatial memory.

phosphorylated tau = assay: Immunohistochemical staining of brain sections with 12E8 and PHF-1; assay type: in vivo, 3xTg-AD mice; conditions: frontal cortex; 30 min after propofol; 3xTg-ins/prop vs 3xTg-veh1/prop
Protocol: (§1) The 3xTg-AD mice and WT mice (female, 9 months old) used for the present study were habituated to handling for 14 days prior to the experiment. Female mice were used because the female 3xTg-AD mice develop behavioral deficits faster than the male mice. The selection of the age of 9 months was because the 3xTg-AD mice at this age show neurogenic and neuroplastic deficits but no NFTs or amyloid plaques and are cognitively impaired. Intranasal delivery was carried out manually without anesthesia while the mouse head was restrained in a supine position with the neck in extension, as described. A total of 1.75 U/17.5 μl insulin or 0.9% saline (Veh 1) was delivered over both nares alternatively using a 10 μl Eppendorf pipetter. The mouse was held for an additional 5-10 seconds to ensure the fluid was inhaled. […] All mice were treated with insulin or, as a control, saline daily for 7 consecutive days. […] The brains were removed immediately, and the rostral halves (separated coronally at the bregma level) of the mouse brains were dissected, flash frozen in dry ice, and stored at −80° C. for biochemical analyses at a later date.

brain insulin signaling = assay: Western blot of brain insulin signaling components; assay type: in vivo, 3xTg-AD mice; conditions: intranasal insulin 7 days prior to propofol; 3xTg-ins/prop vs 3xTg-veh1/prop
Protocol: (§2) The 3xTg-AD mice and WT mice (female, 9 months old) used for the present study were habituated to handling for 14 days prior to the experiment. Female mice were used because the female 3xTg-AD mice develop behavioral deficits faster than the male mice. The selection of the age of 9 months was because the 3xTg-AD mice at this age show neurogenic and neuroplastic deficits but no NFTs or amyloid plaques and are cognitively impaired. Intranasal delivery was carried out manually without anesthesia while the mouse head was restrained in a supine position with the neck in extension, as described. A total of 1.75 U/17.5 μl insulin or 0.9% saline (Veh 1) was delivered over both nares alternatively using a 10 μl Eppendorf pipetter. The mouse was held for an additional 5-10 seconds to ensure the fluid was inhaled. […]
(§3) Mouse brain tissue was homogenized in pre-chilled buffer containing 50 mM Tris-HCl (pH 7.4), 50 mM GlcNAc, 20 μM UDP, 2.0 mM EGTA, 2 mM Na3VO4, 50 mM NaF, 20 mM Glycero-phosphate, 0.5 mM AEBSF, 10 μg/ml aprotinin, 10 μg/ml leupeptin, and 4 μg/ml pepstatin A. Protein concentrations of the homogenates were determined by using modified Lowery method. […] Densitometrical quantification of protein bands in Western blots were analyzed by using the TINA software (Raytest IsotopenmeBgerate GmbH, Straubenhardt, Germany).

PP2A = assay: Western blot of PP2A-C level, methylation and Tyr307 phosphorylation in brain; assay type: in vivo, 3xTg-AD mice; conditions: intranasal insulin 7 days before propofol
Protocol: as §2, §3

[1] = test system: tau protein kinases (GSK-3β, MAPK/ERK, cdk5, CaMKII, JNK); assay type: in vivo
Protocol: as §1
Mouse brain tissue was homogenized in pre-chilled buffer containing 50 mM Tris-HCl (pH 7.4), 50 mM GlcNAc, 20 μM UDP, 2.0 mM EGTA, 2 mM Na3VO4, 50 mM NaF, 20 mM Glycero-phosphate, 0.5 mM AEBSF, 10 μg/ml aprotinin, 10 μg/ml leupeptin, and 4 μg/ml pepstatin A. Protein concentrations of the homogenates were determined by using modified Lowery method. The samples were resolved in 10% or 12.5% SDS-PAGE and electro-transferred onto Immobilon-P membrane (Millipore, Bedford, Mass., USA). The blots were then probed with primary antibody and developed with the corresponding horseradish peroxidase-conjugated secondary antibody and ECL kit (Pierce, Rockford, Ill.). Densitometrical quantification of protein bands in Western blots were analyzed by using the TINA software (Raytest IsotopenmeBgerate GmbH, Straubenhardt, Germany).
Besides PP2A, tau phosphorylation is also regulated by several protein kinases. The levels of several tau protein kinases have been reported to be altered after anesthesia. We therefore determined the levels of the total and the activated form of several tau protein kinases, including glycogen synthase kinase-3β (GSK-3β), mitogen-activated protein kinase/extracellular signal-regulated kinase (MAPK/ERK), cyclin-dependent kinase 5 (cdk5), calcium/calmodulin-dependent protein kinase II (CaMKII), and c-Jun N-terminal kinase (JNK).

tau phosphorylation = assay: Western blot of tau phosphorylation in brain homogenates of 3xTg-AD mice; assay type: in vivo; conditions: intranasal insulin 1.75 U daily 7 days before propofol, 30 min following propofol
Protocol: as §2, §3

[2] = Protocol: as §1
Hypothermia is known to be a major factor underlying anesthesia-induced tau hyperphosphorylation. Therefore, the rectal temperature of the mice was determined.

[3] = insulin treatment before anesthesia vs anesthesia alone

Compound | swimming speeds (old wild type mice; among the four groups (control, anesthesia, insulin+anesthesia, insulin)) | number of platform location crossing during probe test (old wild type mice; [3]) | time to reach the platform location during probe test (old wild type mice; [3]) | spatial learning (old wild type mice; insulin treatment to control mice without anesthesia) | learning performance (time to reach the platform, four training days) (old wild type mice; intranasal insulin 1.75 IU/mouse/day for 7 days before one-time anesthesia) | number of strongly stained neurons (12E8, PHF-1) (phosphorylated tau) | levels of IRβ, IGF-1Rβ, IRβ pY1150/1151, IRS1 pS307, PI3K p85 pY458, PI3K p55 pY199, PDK1, AKT and AKT pT308 (brain insulin signaling) | net PP2A methylation (PP2A; after normalization with the PP2A-C level) | level and methylation of PP2A in the mouse brain (PP2A; normalized with GAPDH, vs 3xTg-veh1/prop) | CDK5, CaMKII pT286 and JNK pT184/pY185 ([1]; intranasal insulin treatment, propofol-treated mouse brains) | phosphorylation level of tau at Thr212, Ser262/356 (12E8 sites), Ser396/404 (PHF-1 sites), Ser409 (tau phosphorylation; 3xTg-ins/prop vs 3xTg-veh1/prop) | phosphorylation level of tau at Thr181, Ser199, Thr205, Thr231, Ser422 (tau phosphorylation; insulin-treated vs untreated) | body temperature, insulin-treated vs untreated mice ([2]; during propofol anesthesia, intranasal insulin 7 days before) | GSK-3β and ERK ([1]; after anesthesia with propofol) | JNK ([1]; after anesthesia with propofol) | a few other tau kinases ([1]; after anesthesia with propofol) | inhibitory Ser9 phosphorylation of GSK-3β ([1]; after anesthesia with propofol) | average rectal temperature ([2]; two hours after propofol injection (250 mg/kg i.p.)) [°C] | average rectal temperature ([2]; within 30 min after propofol injection (250 mg/kg i.p.), from around 38.2° C.) [°C]
Insulin | not different | increased | decreased | did not affect spatial learning significantly | as good as control mice | markedly reduced | up-regulated | not increased | significant increase | mild to moderate reductions | significantly lower | the decreases did not reach statistical significance | no difference |  |  |  |  |  | 
CC(C)c1cccc(C(C)C)c1O [propofol] |  |  |  |  |  |  |  |  |  |  |  |  |  | inhibition | activation | moderate alterations | dramatic increase | 25.6 | 28.6
